We go through eight compounds from patent US6596727B1, “Substituted pyrimidines, processes for their preparation, and their use as pesticides and fungicides” (priority 1992, dated 2003).

The subject of the first data set is larvae (L3) of the species Nilaparvata lugens. As to the kind of experiment: Nilaparvata lugens larvae test on dipped rice plants. Type of data set: in vivo. The following applies: 250 ppm of the active ingredient, 21° C., after 4 days. The text has this: Rice seed is placed into glass culture dishes containing cotton wool and germinated under moist conditions and, after the stem has grown to a length of approx. 8 cm, it is dipped together with the leaves into the test solution. The test solution is allowed to run off from the treated rice plants, and the plants are transferred to culture containers and populated with batches of 10 larvae (L3) of the species Nilaparvata lugens, the individual test concentrations being kept separate from each other. After the sealed culture containers have been kept at 21° C., the mortality of the cicada larvae can be determined after 4 days.
Under these test conditions, the compounds according to Example No. 9, 25, 30, 93, 99, 432 have a 100% activity at a test concentration of 250 ppm of the active ingredient.
Consider `COCc1ncnc(NC2CCC(C(C)(C)C)CC2)c1OC` (mixture of isomers) [Example 9], for which the “mortality of the cicada larvae (activity)” value (“mortality” below) stood at 100%.
On to `COCc1ncnc(NC2CCC(C(C)C)CC2)c1OC` (stereo not drawn) [Example 25], for which the “mortality” value worked out at 100%.
In the case of `COCc1ncnc(NC2CCC(c3ccccc3)CC2)c1OC` (mixture of isomers) [Example 93], the “mortality” value was found to be 100%.
As to `CCc1ncnc(OC2CCC(c3ccc(OC(C)(C)C)cc3)CC2)c1Cl` (stereo not drawn) [Example 432], the “mortality” value stood at 100%.
Consider `CCC(C)(C)C1CCC(Nc2ncnc(COC)c2OC)CC1` (stereo not drawn) [Example 30], for which the “mortality” value is on record as 100%.

A further data set relates to tropical cattle ticks (Boophilus microplus). Nature of the data set: In vitro test with tropical cattle ticks, inhibition of oviposition. The class given is in vivo. The following applies: 500 ppm active substance; females immersed five minutes; two weeks after the treatment. The procedure:
In vitro test with tropical cattle ticks (Boophilus microplus)
To prepare a suitable preparation of active substance, the active substances were dissolved at a concentration of 10% (w/v) in a mixture composed of dimethylformamide (85 g), nonylphenol polyglycol ether (3 g) and oxethylated castor oil (7 g), and the resulting emulsion concentrates were diluted with water to a test concentration of 500 ppm.
Batches of ten females of the tropical tick Boophilus microplus which had sucked themselves full were immersed for five minutes in these active substance dilutions. The ticks were subsequently dried on filter paper and then attached, by their backs, to an adhesive film for the purpose of oviposition. The ticks were kept in an incubator at 28° C. and an atmospheric humidity of 90%.
As a control, female ticks were merely immersed in water. The inhibition of oviposition two weeks after the treatment was used to assess the effectiveness. 100% mean that no ticks have deposited eggs, 0% means that all ticks have deposited eggs.
For `CC(C)(C)C1CCC(Oc2ncnc3c2CCCC3)CC1` (stereo not drawn) [Example 19], the inhibition of oviposition is listed as 100%.
Still for that read-out and setting: for `c1ccc(C2CCC(Oc3ncnc4c3CCCC4)CC2)cc1` (stereo not drawn) [Example 106] the value was 100%; for `CC(C)(C)C1CCC(Nc2ncnc3c2CCCC3)CC1` (mixture of isomers) [Example 10], 100%; for `CCC(C)(C)C1CCC(Nc2ncnc(COC)c2OC)CC1` (stereo not drawn) [Example 30], 100%.
